This is an account of results in patent US7968713B2, “Method of synthesizing quinoxaline derivative by microwave irradiation” (Nihon University, priority 2005, dated 2011).

The subject of series [1] is HepG2 cells. In words: Hypoxic selective cytotoxicity test with respect to HepG2 cells (colony forming ratio). The series is classed as cell-based, human. Particulars: 20 μM exposed for six hours, cultivated for seven days; for Activity (Surviving fraction) (%) hypoxia: hypoxic state (hypoxia); for Activity (Surviving fraction) (%) noroxia: usual oxygen state (noroxia). Here is the method:
(Hypoxic Selective Cytotoxicity Test with Respect to HepG2 Cells)
A cytotoxicity reinforcing effect on a hypoxic condition was tested using HepG2 cells which were human liver cancer cells. In a usual oxygen state (noroxia) and a hypoxic state (hypoxia), 20 μM of each quinoxaline 1,4-dioxide derivative shown in Table 1 (Compounds 1 to 8 including R1 to R6 shown in Table 1 in the above general formula (3)) was exposed for six hours, and cultivated for seven days, and then colony forming ratios were compared. It is to be noted that in Table 1, “Ph-NO2” is a group in which a nitro group is introduced into a para position of a benzoyl group.

Take `Cc1c(C(=O)c2ccc([N+](=O)[O-])cc2)[n+]([O-])c2cc(Cl)c(Cl)cc2[n+]1[O-]` [Compound 7, 6,7-dichloro-3-methyl-2-(4′-nitrobenzoyl)-quinoxaline 1,4-dioxide]: the melting point lay within 215 to 217 °C. In series [1], the “Activity (Surviving fraction) (%) hypoxia” value was found to be 6% and the “Activity (Surviving fraction) (%) noroxia” value is given as 73%. As for `COc1cc2c(cc1OC)[n+]([O-])c(-c1ccccc1)c(C(=O)c1ccccc1)[n+]2[O-]` [Example 3, 2-benzoyl-6,7-dimethoxy-3-phenylquinoxaline 1,4-dioxide], the melting point was 286 °C (dec.). In the case of `COc1cc2c(cc1OC)[n+]([O-])c(C(C)=O)c(C)[n+]2[O-]` [Example 5, 2-acetyl-6,7-dimethoxy-3-methylquinoxaline 1,4-dioxide], the melting point was 254 °C. Compound `O=C(c1ccccc1)c1c(-c2ccccc2)[n+]([O-])c2cc(F)c(F)cc2[n+]1[O-]` [Example 2, 2-benzoyl-6,7-difluoro-3-phenylquinoxaline 1,4-dioxide] came in with a melting point of 249 to 251 °C. Regarding `Cc1c(C(=O)c2ccc([N+](=O)[O-])cc2)[n+]([O-])c2cc(F)c(F)cc2[n+]1[O-]` [Compound 8, 6,7-difluoro-3-methyl-2-(41-nitrobenzoyl)-quinoxaline 1,4-dioxide], the melting point lay in the range of 232 to 233 °C. Besides, in series [1], the “Activity (Surviving fraction) (%) hypoxia” value worked out at 1% and the “Activity (Surviving fraction) (%) noroxia” value is 44%.

As usually defined, the melting point is the temperature of the solid-liquid transition.
